Source: paper PMC6362850 (European journal of medicinal chemistry, 2018)

Key:
[1] = biological target: T1, HBV Cp (Hepatitis B virus genotype D subtype ayw, UniProt P03146, R150C); type: binding
[2] = biological target: T1, HBV Cp; conditions: HTS of commercial libraries; cited from earlier work
[3] = Aqueous solubility assay in DPBS; type: physicochemical; conditions: thermodynamic, 72 h, ambient temperature
[4] = biological target: HBV capsid (Hepatitis B virus genotype D subtype ayw, UniProt P03146, R150C); assay: Transmission electron microscopy of HBV capsid assembly; type: biochemical; conditions: compared to DMSO control

Row | Compound | Cp binding in TSA, in words [1] | other results
1 | Cc1c(C(=O)Nc2cc(F)c(F)c(Cl)c2)sc(N)c1C#N [Compound 14d] | loss of binding affinity | 
2 | Cc1c(C(=O)Nc2ccccc2)sc(N)c1C(N)=O [Compound 11, 5-Amino-3-methyl-N2-phenylthiophene-2,4-dicarboxamide] |  | Binding to HBV Cp in TSA (HTS), in words [2]: strong binder
3 | Cc1c(C(=O)Nc2ccc(F)c(C(F)F)c2)sc(N)c1C(N)=O [Compound 19o] |  | Aqueous Solubility [3]: poor aqueous solubility
4 | Cc1c(C(=O)Nc2ccccc2)sc(NC(=O)N2CCOCC2)c1C(N)=O [Compound 12a, 3-Methyl-5-(morpholine-4-carboxamido)-N2-phenylthiophene-2,4-dicarboxamide] | completely inactive | 
5 | Cc1c(C(=O)Nc2ccc(F)c(F)c2)sc(N)c1C(N)=O [Compound 19g] |  | Aqueous Solubility [3]: poor aqueous solubility
6 | Cc1cc(NC(=O)c2sc(N)c(C(N)=O)c2C)ccc1F [Compound 19h] | only the denaturation peak corresponding to fully assemble capsid was observed | Effect on HBV capsid assembly (TEM) [4]: promoted the aggregation of HBV capsid
7 | COc1ccc(NC(=O)c2sc(N)c(C(N)=O)c2C)cc1 [Compound 19b] | Cp binding was preserved | 
8 | Cc1c(C(=O)NCc2ccccc2)sc(N)c1C(N)=O [Compound 19a] | strong Cp binding was preserved | 
9 | Cc1c(C(=O)Nc2ccccc2)sc(N)c1C#N [Compound 14a] | loss of binding affinity | 
10 | Cc1c(C(=O)Nc2ccc(F)c(C#N)c2)sc(N)c1C(N)=O [Compound 19l] |  | Aqueous Solubility [3]: poor aqueous solubility
11 | Cc1c(C(=O)Nc2ccccc2)sc(-n2cnnn2)c1C(N)=O [Compound 12k] | completely inactive | 
12 | Cc1c(C(=O)Nc2ccc(F)cc2)sc(N)c1C(N)=O [Compound 19e] | strong Cp binding | 
13 | 5-Amino-4-carbamothioyl-N-(3,4-difluorophenyl)-3-methylthiophene-2-carboxamide [Compound 13] | Strong binding | 
14 | Cc1c(C(=O)Nc2ccc(F)c(F)c2)sc(N)c1C(=O)NC1CCCC1 [Compound 16m] | retained strong Cp binding | 
